Results: ChEMBL document CHEMBL1201862, “PubChem BioAssay data set” (2004)
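Step 1: Grow cells in 96-well plates. Step 2: Expose to compound for 48 hours at 5 concentrations. Step 3: Interpolate endpoints linearly; if unreached, use highest concentration. At the GI50, growth is halved.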 Active and inactive are the calls of the source. No stated cut-off is given here; in the data, active = GI50 up to about 1.1 µM and inactive = higher.

Columns and labels:
Experiment in all cases: inhibition of tumour cell growth, NCI panel, 48 h
SW-620 = tested on: SW-620
EKVX = tested on: EKVX
LOX IMVI = tested on: LOX IMVI
SNB-19 = tested on: SNB-19
Hs-578T = tested on: Hs-578T
HL-60 = tested on: HL-60
MDA-MB-435 = tested on: MDA-MB-435
A498 = tested on: A498
SN12C = tested on: SN12C
PC-3 = tested on: PC-3
Malme-3M = tested on: Malme-3M
RXF 393 = tested on: RXF 393
BT-549 = tested on: BT-549
SR = tested on: SR
SF-268 = tested on: SF-268
A549 = tested on: A549
MCF7 = tested on: MCF7
TK-10 = tested on: TK-10
SF-295 = tested on: SF-295
CCRF-CEM = tested on: CCRF-CEM
UACC-62 = tested on: UACC-62
NCI-H23 = tested on: NCI-H23
SK-MEL-5 = tested on: SK-MEL-5
NCI/ADR-RES = tested on: NCI/ADR-RES
786-0 = tested on: 786-0
T47D = tested on: T47D
OVCAR-8 = tested on: OVCAR-8
HCT-116 = tested on: HCT-116
K562 = tested on: K562
HOP-92 = tested on: HOP-92
MOLT-4 = tested on: MOLT-4
SK-MEL-28 = tested on: SK-MEL-28
HCC 2998 = tested on: HCC 2998
OVCAR-3 = tested on: OVCAR-3
DU-145 = tested on: DU-145
OVCAR-5 = tested on: OVCAR-5
OVCAR-4 = tested on: OVCAR-4
IGROV-1 = tested on: IGROV-1
HCT-15 = tested on: HCT-15
UACC-257 = tested on: UACC-257
COLO 205 = tested on: COLO 205
MDA-N = tested on: MDA-N
HOP-62 = tested on: HOP-62
HT-29 = tested on: HT-29
U-251 = tested on: U-251
M14 = tested on: M14
KM12 = tested on: KM12
NCI-H522 = tested on: NCI-H522
CAKI-1 = tested on: CAKI-1
NCI-H460 = tested on: NCI-H460
ACHN = tested on: ACHN
MDA-MB-231 = tested on: MDA-MB-231
NCI-H226 = tested on: NCI-H226
RPMI-8226 = tested on: RPMI-8226
SK-MEL-2 = tested on: SK-MEL-2
UO-31 = tested on: UO-31
SK-OV-3 = tested on: SK-OV-3
SF-539 = tested on: SF-539
SNB-75 = tested on: SNB-75

With `Cc1ccc(N2C(=O)C3c4[nH]c5ccccc5c4C4CCC(C(C)(C)C)CC4C3C2=O)cc1` (stereo unspecified) the GI50 (SW-620) was > 26.1 µM (inactive), the GI50 (EKVX) was 13.6 µM (inactive) and the GI50 (LOX IMVI) was 11.6 µM (inactive). For the same compound, the GI50 (SNB-19) was 8.75 µM (inactive), the GI50 (Hs-578T) was 4.1 µM (inactive) and the GI50 (HL-60) was 7.62 µM (inactive). The GI50 (MDA-MB-435) was 16.8 µM (inactive), the GI50 (A498) was 16.2 µM (inactive) and the GI50 (SN12C) was 10.3 µM (inactive). For the same compound, the GI50 (PC-3) was 13 µM (inactive), the GI50 (Malme-3M) was 6.9 µM (inactive) and the GI50 (RXF 393) was 10.4 µM (inactive). The GI50 (BT-549) was 19.2 µM (inactive), the GI50 (SR) was 6.05 µM (inactive) and the GI50 (SF-268) was 6.78 µM (inactive). The GI50 (A549) was 10.1 µM (inactive), the GI50 (MCF7) was 12.6 µM (inactive) and the GI50 (TK-10) was 6 µM (inactive). For the same compound, the GI50 (SF-295) was 8.15 µM (inactive), the GI50 (CCRF-CEM) was 5.36 µM (inactive) and the GI50 (UACC-62) was 16.4 µM (inactive). The GI50 (NCI-H23) was 15.1 µM (inactive), the GI50 (SK-MEL-5) was 16.8 µM (inactive) and the GI50 (NCI/ADR-RES) was 12.8 µM (inactive). The GI50 (786-0) was 5.06 µM (inactive), the GI50 (T47D) was 15.6 µM (inactive) and the GI50 (OVCAR-8) was 7.71 µM (inactive). For the same compound, the GI50 (HCT-116) was 11.1 µM (inactive), the GI50 (K562) was 5.51 µM (inactive) and the GI50 (HOP-92) was 15.1 µM (inactive). The GI50 (MOLT-4) was 3.17 µM (inactive), the GI50 (SK-MEL-28) was 18.3 µM (inactive) and the GI50 (HCC 2998) was 14.8 µM (inactive). The GI50 (OVCAR-3) was 3.03 µM (inactive), the GI50 (DU-145) was 2.48 µM (inactive) and the GI50 (OVCAR-5) was 14.1 µM (inactive). The GI50 (OVCAR-4) was 7.21 µM (inactive), the GI50 (IGROV-1) was 11.4 µM (inactive) and the GI50 (HCT-15) was 34.6 µM. For the same compound, the GI50 (UACC-257) was 13.3 µM (inactive), the GI50 (COLO 205) was 8.95 µM (inactive) and the GI50 (MDA-N) was 16.8 µM (inactive). For the same compound, the GI50 (HOP-62) was 5.38 µM (inactive), the GI50 (HT-29) was 13 µM (inactive) and the GI50 (U-251) was 4.49 µM (inactive). For the same compound, the GI50 (M14) was 13.6 µM (inactive), the GI50 (KM12) was 17.5 µM (inactive) and the GI50 (NCI-H522) was 11.2 µM (inactive). For the same compound, the GI50 (CAKI-1) was 10.2 µM (inactive), the GI50 (NCI-H460) was 6.46 µM (inactive) and the GI50 (ACHN) was 6.64 µM (inactive). The GI50 (MDA-MB-231) was 3.78 µM (inactive), the GI50 (NCI-H226) was 17.4 µM (inactive) and the GI50 (RPMI-8226) was 8.85 µM (inactive). The GI50 (SK-MEL-2) was 21.3 µM (inactive), the GI50 (UO-31) was 14.9 µM (inactive) and the GI50 (SK-OV-3) was 14.9 µM (inactive).
For `COC(=O)C(=O)c1c2ccccc2n2ccc3c4ccccc4[nH]c3c12`, the GI50 (SW-620) was > 10 µM (inactive), the GI50 (EKVX) was 0.406 µM (active) and the GI50 (LOX IMVI) was > 10 µM (inactive). The GI50 (SNB-19) was > 10 µM (inactive), the GI50 (Hs-578T) was 3.07 µM (inactive) and the GI50 (HL-60) was > 10 µM (inactive). For the same compound, the GI50 (MDA-MB-435) was > 10 µM (inactive), the GI50 (SN12C) was > 10 µM (inactive) and the GI50 (PC-3) was > 10 µM (inactive). The GI50 (Malme-3M) was > 10 µM (inactive), the GI50 (RXF 393) was > 10 µM (inactive) and the GI50 (BT-549) was > 10 µM (inactive). The GI50 (SR) was > 10 µM (inactive), the GI50 (SF-268) was > 10 µM (inactive) and the GI50 (A549) was > 10 µM (inactive). For the same compound, the GI50 (MCF7) was > 10 µM (inactive), the GI50 (TK-10) was > 10 µM (inactive) and the GI50 (SF-295) was > 10 µM (inactive). For the same compound, the GI50 (CCRF-CEM) was > 10 µM (inactive), the GI50 (UACC-62) was > 10 µM (inactive) and the GI50 (NCI-H23) was > 10 µM (inactive). For the same compound, the GI50 (SK-MEL-5) was > 10 µM (inactive), the GI50 (NCI/ADR-RES) was > 10 µM (inactive) and the GI50 (786-0) was > 10 µM (inactive). The GI50 (T47D) was > 10 µM (inactive), the GI50 (OVCAR-8) was > 10 µM (inactive) and the GI50 (HCT-116) was > 10 µM (inactive). For the same compound, the GI50 (K562) was > 10 µM (inactive), the GI50 (SF-539) was 3.27 µM (inactive) and the GI50 (HOP-92) was > 10 µM (inactive). For the same compound, the GI50 (MOLT-4) was > 10 µM (inactive), the GI50 (HCC 2998) was > 10 µM (inactive) and the GI50 (OVCAR-3) was > 10 µM (inactive). The GI50 (DU-145) was > 10 µM (inactive), the GI50 (OVCAR-5) was > 10 µM (inactive) and the GI50 (OVCAR-4) was > 10 µM (inactive). The GI50 (IGROV-1) was > 10 µM (inactive), the GI50 (HCT-15) was over 10 µM and the GI50 (UACC-257) was > 10 µM (inactive). For the same compound, the GI50 (COLO 205) was > 10 µM (inactive), the GI50 (MDA-N) was > 10 µM (inactive) and the GI50 (HOP-62) was > 10 µM (inactive). For the same compound, the GI50 (HT-29) was > 10 µM (inactive), the GI50 (U-251) was > 10 µM (inactive) and the GI50 (M14) was > 10 µM (inactive). The GI50 (SNB-75) was > 10 µM (inactive), the GI50 (KM12) was > 10 µM (inactive) and the GI50 (NCI-H522) was > 10 µM (inactive). For the same compound, the GI50 (CAKI-1) was > 10 µM (inactive), the GI50 (NCI-H460) was > 10 µM (inactive) and the GI50 (ACHN) was > 10 µM (inactive). For the same compound, the GI50 (MDA-MB-231) was 9.18 µM (inactive), the GI50 (NCI-H226) was > 10 µM (inactive) and the GI50 (RPMI-8226) was > 10 µM (inactive). The GI50 (SK-MEL-2) was > 10 µM (inactive), the GI50 (UO-31) was > 10 µM (inactive) and the GI50 (SK-OV-3) was > 10 µM (inactive).
For `O=C(c1c(Cl)cc(Cl)cc1Cl)N(Cc1cccnc1)C(=S)N(Cc1cccnc1)C(=O)c1c(Cl)cc(Cl)cc1Cl`, the GI50 (SW-620) was 4.14 µM (inactive), the GI50 (EKVX) was 15.5 µM (inactive) and the GI50 (LOX IMVI) was 3.65 µM (inactive). For the same compound, the GI50 (SNB-19) was 20.2 µM (inactive), the GI50 (Hs-578T) was 23.9 µM (inactive) and the GI50 (HL-60) was 7.23 µM (inactive). The GI50 (MDA-MB-435) was 8.67 µM (inactive), the GI50 (A498) was 23.8 µM (inactive) and the GI50 (SN12C) was 5.68 µM (inactive). For the same compound, the GI50 (PC-3) was 5.96 µM (inactive), the GI50 (Malme-3M) was 19.5 µM (inactive) and the GI50 (BT-549) was 2.98 µM (inactive). For the same compound, the GI50 (SR) was 6.56 µM (inactive), the GI50 (SF-268) was 6.97 µM (inactive) and the GI50 (A549) was 32.1 µM (inactive). The GI50 (MCF7) was 4.52 µM (inactive), the GI50 (TK-10) was 3.93 µM (inactive) and the GI50 (SF-295) was 19.4 µM (inactive). The GI50 (CCRF-CEM) was 5.56 µM (inactive), the GI50 (UACC-62) was 15.1 µM (inactive) and the GI50 (NCI-H23) was 8.67 µM (inactive). The GI50 (SK-MEL-5) was 10.9 µM (inactive), the GI50 (NCI/ADR-RES) was 11.4 µM (inactive) and the GI50 (786-0) was 2.26 µM (inactive). For the same compound, the GI50 (T47D) was 14.4 µM (inactive), the GI50 (OVCAR-8) was 4.04 µM (inactive) and the GI50 (HCT-116) was 2.91 µM (inactive). For the same compound, the GI50 (K562) was 4.32 µM (inactive), the GI50 (SF-539) was 11 µM (inactive) and the GI50 (HOP-92) was 3.25 µM (inactive). The GI50 (MOLT-4) was 6.84 µM (inactive), the GI50 (SK-MEL-28) was 11 µM (inactive) and the GI50 (HCC 2998) was 3.12 µM (inactive). For the same compound, the GI50 (OVCAR-3) was 3.77 µM (inactive), the GI50 (DU-145) was 4.62 µM (inactive) and the GI50 (OVCAR-5) was 18.5 µM (inactive). The GI50 (OVCAR-4) was 2.19 µM (inactive), the GI50 (HCT-15) was 3.05 µM and the GI50 (UACC-257) was 7.26 µM (inactive). For the same compound, the GI50 (COLO 205) was 4.73 µM (inactive), the GI50 (MDA-N) was 2.15 µM (inactive) and the GI50 (HOP-62) was 4.35 µM (inactive). For the same compound, the GI50 (HT-29) was 2.97 µM (inactive), the GI50 (U-251) was 9.02 µM (inactive) and the GI50 (M14) was 4.82 µM (inactive). For the same compound, the GI50 (SNB-75) was 5.35 µM (inactive), the GI50 (KM12) was 2.97 µM (inactive) and the GI50 (NCI-H522) was 6.89 µM (inactive). For the same compound, the GI50 (CAKI-1) was 5.32 µM (inactive), the GI50 (NCI-H460) was 13.4 µM (inactive) and the GI50 (ACHN) was 19.1 µM (inactive). For the same compound, the GI50 (MDA-MB-231) was 20.4 µM (inactive), the GI50 (NCI-H226) was 19 µM (inactive) and the GI50 (RPMI-8226) was 1.27 µM (inactive). The GI50 (SK-MEL-2) was 12.5 µM (inactive), the GI50 (UO-31) was 5.47 µM (inactive) and the GI50 (SK-OV-3) was 22.2 µM (inactive).
